“Also recorded” adds a separate entry of the source. One block for each compound: values may come before it.
Tests used:
GST-IRTK [1] = target: T1, GST-IRTK (Homo sapiens, UniProt P06213); test: IR in vitro kinase assay (histone H2B phosphorylation); format: biochemical; settings: different concentrations of compound
T1 construct: GST-tagged IRTK (GST-IRTK, a.a. 1011-1382); purchased Invitrogen
Method: Parental CHO cells were used as a negative control (bottom panel). The fluorescence-labeled cells were analyzed on flow cytometry. (B) DDN binds to IRTK. UV-visible spectra were scanned from 200 to 800 nm for IRTK fragment in the presence of DDN or its analogue. When DDN binds to IRTK, it elicits the absorption alteration at 560 and 602 nm. (C) DDN protects IRTK from proteolysis. GST-IRTK was subjected to limited trypsin digestion in the presence of DDN (50 μM), ATP-γ-S (5 μM) or both. The reaction mixture was resolved by SDS-PAGE, followed by silver staining (D) DDN increases IRTK activity in vitro.
Parental CHO cells were used as a negative control (Bottom panel). The fluorescence-labeled cells were analyzed on flow cytometry. (B) 4524-E7 protects IRTK from proteolysis. GST-IRTK was subjected to limited trypsin or chymotrypsin digestion in the presence of 4524-E7 (50 μM), ATPyS (5 μM) or both at 37° C. for 5 min. The reaction mixture was resolved by SDS-PAGE, followed by silver staining Cleaved fragments were asterisked. (C) 4524-E7 increases IRTK activity in vitro. Recombinant GST-IRTK, GST-IGFRTK, and GST-EGFRTK were incubated with different concentrations of 4524-E7 or 10 μM 2—NH2-NQ and the kinase activity was examined by monitoring the phosphorylation of histone H2B. (E) In vitro kinase activity of various IRTK/IGF-1R kinase hybrids. The GFP-tagged kinases were expressed in HEK293, immunoprecipitated and incubated with different concentrations of 4524-E7 as indicated. […] Expressions of the kinases were also verified (lower panel).
Recombinant GST-IRTK was incubate with 50 mM tris-HCl (pH7.4), 10 mM MgCl2, and 50 μM ATP with different concentration of compound for 15 min at 25° C. Histone H2B (0.35 μg/ml) and [γ32P]ATP (0.25 μCi/ul) were added and the samples were further incubated for 10 min. The sample was separated on a SDS-polyacrylamide gel and autoradiographed.

C57BL/6J mice = test: Blood glucose level test in C57BL/6J mice; format: in vivo, mouse; settings: 20 mg/kg oral, 12 h starved
Method: (§1) (A) DDN reduces blood glucose in C57BL/6J mice. […] Blood glucose was monitored before and after dosing at various time points as indicated (*: P<0.05, **: P<0.01; ***: P<0.001, n=10-13, Two-way ANOVA vs vehicle). (B) DDN provokes IR phosphorylation and its downstream signaling in C57BL/6J mice. Three month-old C57BL/6J mice were starved for 12 h and then orally administrated with vehicle (0.5% methylcellulose), DDN (20 mg/kg) or 2NH2-NQ (20 mg/kg). Cell lysates were prepared from liver and muscle tissues collected at 3, 4, and 5 h after drug administration and analyzed by immunoprecipitation and immunoblotting. (C) DDN quickly activates IR phosphorylation and its downstream signaling. Three-month-old C57BL/6J mice were starved for 12 h and then injected with vehicle, 5 mg/kg DDN or 5 mg/kg 2NH2-NQ through vena cava. After 5 min, the liver was collected and analyzed by immunobloting using specific antibodies.
(§2) (A) 4524-E7 provokes IR phosphorylation in various tissues of mice. Three-month-old C57BL/6J mice were starved for 12 h and then dosed with vehicle (0.5% methylcellulose) or 4524-E7 (20 mg/kg). Cell lysates from liver, muscle, and WAT were prepared at 3, 4, and 5 h after drug administration and analyzed by immunoblotting. (B) Basal and insulin-stimulated hepatic glucose production rates were measured by hyperinsulinemic-euglycemic clamp. […] (C) Hypoglycemic effect of 4524-E7 in C57BL/6J mice. C57BL/6J mice were starved for 12 h and then orally administrated with vehicle (0.5% methylcellulose) or 4524-E7 (5 mg/kg). Blood glucose was monitored at different time points as indicated (n=8, *: P<0.05, two-way ANOVA). (D) Hypoglycemic effect in db/db mice. db/db mice were starved for 12 h and then orally injected with vehicle (0.5% methylcellulose) or 4524-E7 (5 mg/kg). Blood glucose was monitored at different time points as indicated (n=5, *: P<0.05, two-way ANOVA). (E) Glucose tolerance test in ob/ob mice. The mice were starved for 12 hours and then orally administrated with vehicle or 4524-E7 (5 mg/kg). A bonus of glucose (2 gm/kg) was injected intraperitoneally 1 hour later. Blood glucose was then measured at 30 min intervals (n=13, *: P<0.05; **: P<0.01, two-way ANOVA).
After a 12 h fasting, C57B5L/6J and db/db mice were bled from the tail vein for a baseline measurement with a glucometer (Accu-Chek; Roche Diagnostics, Indianapolis, Ind.). Afterward, animals were orally administered 5 mg/kg compound in 0.5% methylcellulose through a feeding needle. Blood glucose levels were measured at hourly intervals over 5 h.

IR [2] = target: IR (Mus musculus, UniProt P15208); test: IR phosphorylation and downstream signaling in mouse tissues; format: in vivo; settings: C57BL/6J mice, 20 mg/kg oral
Method: as §1
Three-month-old mice were starved for 12 h and then orally administrated with vehicle (0.5% methylcellulose) or DDN (5 mg/kg). Cell lysates were prepared from liver and muscle tissues collected at 1 and 2 h after drug administration and analyzed by immunoprecipitation and immunoblotting. […] Three-month-old mice were starved for 12 h and then orally administrated with vehicle (0.5% methylcellulose) or DDN (5 mg/kg). Cell lysates were prepared from liver and muscle tissues collected at 1 and 2 h after drug administration and analyzed by immunoprecipitation and immunoblotting. (C) Hypoglycemic function of DDN in db/db mice. The animals were starved for 12 h and then orally injected with vehicle (0.5% methylcellulose) or DDN (5 mg/kg). […] Blood glucose was monitored before and after drug administration at 1-hour intervals (*: P<0.05, **: P<0.01, n=5, Two-way ANOVA vs vehicle). (D) DDN improves the glucose tolerance in ob/ob mice. The animals were starved for 12 h and then orally dosed with vehicle (0.5% methylcellulose) or DDN (5 mg/kg). […] A bonus of glucose (2 gm/kg) was injected intraperitoneally 1 hour later. Blood glucose was measured at 30-min intervals (*: P<0.05, **:P<0.01, n=5, Two-way ANOVA vs vehicle control).
as §2
After a 12 h fasting, C57BL/6J mice were orally administrated with 20 mg/kg of compound in 0.5% methylcellulose, and sacrificed at 3 h, 4 h and 5 h following compound administration. Fat tissues were dissected quickly and frozen on dry ice. Fat lysates were prepared and analyzed by Western blotting.

IR [3] = target: T2, IR (Homo sapiens, UniProt P06213); test: Cell-based ELISA of IR tyrosine phosphorylation in CHO-IR cells; design: expressed in transfected cells; host or cells: CHO (CHO-IR, gift from Dr. Nicholas Webster, UCSD); settings: 5 μM, ELISA
Method: A cell-based screening assay was developed with Chinese hamster ovary cells stably transfected with IR (CHO-IR) by using an ELISA to determine the IR tyrosine phosphorylation. […] Other 1,4-Napthoquinones that are structurally related to 4524-E7 were evaluated.
CHO-IR cells were seeded in a 96-well plate at 15,000 cells per well in […] of 0.1% FBS medium with 0.1% FBS. […] Cells were lysed, and phosphorylated receptors were captured with pY20 immobilized on ELISA plates. Bound receptors were washed, then detected using an anti-IR beta antibody, followed by an horseradish peroxidase-conjugated secondary antibody and colorimetric detection with 3,3′,5,5′-tetramethylbenzidine.
(§3) A cell-based ELISA assay was developed with an IR stably transfected Chinese Hamster Ovary (CHO-IR) cell line. […] The cell lysates were subjected to the sandwich ELISA using immobilized anti-phosphotyrosine antibody and anti-IR antibody.

GST-IRTK [4] = target: T1, GST-IRTK; test: Partial proteolysis; format: binding; settings: compound 50 μM or ATP-γ-S 5 μM; limited trypsin (or chymotrypsin) digestion
Method: 200 ng GST-IRTK was subjected to limited trypsin digestion in the presence or absence of 50 μM compound with 50 mM tris-HCL (pH8.2) and 20 mM CacCl2. The sample was separated on a SDS-polyacrylamide gel and stained by silver.
Several small molecules bind to the intracellular kinase domain of IR (IRTK) and provoke its activation. DDN might also interact with the IRTK to activate IR. To test this possibility, an UV-absorption spectra analysis was performed using recombinant IRTK. While the GST-tagged IRTK (GST-IRTK, a.a. 1011-1382) had no absorption from 200 nm to 800 nm, addition of DDN, but not its structural related analogue naptho[2,3-d]thiazole-4,9-dione-2-[(4-chlorophenyl)amino] […] Partial proteolysis analysis was also performed to confirm the DDN/IRTK interaction. Recombinant GST-tagged IRTK was incubated with either DMSO or DDN, followed by limited trypsin digestions. In DMSO treatment, GST-IRTK was digested into several smaller fragments of various molecular weights. […] Whereas a band of ˜37 kDa presented strongly in the ATP-γ-S incubated IRTK, a band of ˜30 kDa was found in the control samples but attenuated in the ATP-γ-S-treated sample.
To evaluate if 4524-E7 directly binds to the IR kinase domain, a partial proteolysis assay was performed with recombinant IRTK domain using trypsin or chymotrypsin, which was used before to characterize the interaction between IR and its small molecular ligand DAQ B1. Recombinant GST-tagged IRTK with either DMSO, 50 μM 4524-E7 or ATP-γ-S, were incubated and followed by limited trypsin or chymotrypsin digestion. Under DMSO treatment, GST-IRTK was quickly digested by both trypsin and chymotrypsin into several small fragments with various molecular weights (FIG. 10B). […] To test whether 4524-E7 selectively elevates IR kinase activities, an in vitro IR, IGFR, and EGFR kinase assays were performed using histone as the substrate.

IR [5] = target: T2, IR; test: Immunoblotting of IR phosphorylation and downstream signaling in CHO-IR cells; format: cell-based; design: expressed in transfected cells; host or cells: CHO (CHO-IR, gift from Dr. Nicholas Webster, UCSD); settings: 5 μM, 30 min
Method: The cell lysates were analyzed by immunoblotting with anti-phospho-IR antibodies, or immunoprecipitated by PY20 and analyzed using anti-IR and anti-IRS-1, respectively. […] The cell lysates were analyzed by immunoblotting with anti-pIGF-1R and anti-pEGFR. […]
as §3

T1 sequence (P06213 1011-1382): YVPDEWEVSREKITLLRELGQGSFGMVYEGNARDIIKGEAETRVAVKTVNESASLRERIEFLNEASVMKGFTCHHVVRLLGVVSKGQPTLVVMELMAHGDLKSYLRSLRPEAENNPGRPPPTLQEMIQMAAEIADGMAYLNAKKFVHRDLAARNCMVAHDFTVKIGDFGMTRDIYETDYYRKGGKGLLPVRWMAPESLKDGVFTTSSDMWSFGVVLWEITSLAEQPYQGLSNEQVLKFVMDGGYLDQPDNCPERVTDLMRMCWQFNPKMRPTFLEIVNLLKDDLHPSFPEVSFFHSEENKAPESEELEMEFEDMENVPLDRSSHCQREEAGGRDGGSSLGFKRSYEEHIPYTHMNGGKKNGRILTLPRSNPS
T2 sequence (P06213 763-1382 limits assumed): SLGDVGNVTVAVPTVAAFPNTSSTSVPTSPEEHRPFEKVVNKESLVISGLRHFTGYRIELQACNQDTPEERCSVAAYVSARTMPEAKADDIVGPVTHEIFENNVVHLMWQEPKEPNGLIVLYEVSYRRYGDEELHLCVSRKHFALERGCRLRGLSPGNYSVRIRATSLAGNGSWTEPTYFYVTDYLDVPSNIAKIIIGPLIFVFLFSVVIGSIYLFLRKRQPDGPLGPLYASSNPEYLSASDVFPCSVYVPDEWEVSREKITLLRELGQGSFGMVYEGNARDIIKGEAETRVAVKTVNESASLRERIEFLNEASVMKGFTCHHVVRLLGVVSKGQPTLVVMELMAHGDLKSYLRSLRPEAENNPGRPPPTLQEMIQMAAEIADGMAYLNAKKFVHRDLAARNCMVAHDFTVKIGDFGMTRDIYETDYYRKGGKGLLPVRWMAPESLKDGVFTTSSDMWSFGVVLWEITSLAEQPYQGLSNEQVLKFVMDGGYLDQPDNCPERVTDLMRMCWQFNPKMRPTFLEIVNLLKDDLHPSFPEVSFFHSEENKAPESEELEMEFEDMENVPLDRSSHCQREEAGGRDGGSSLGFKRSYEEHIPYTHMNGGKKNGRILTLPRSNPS
T2 sequence (P06213 28-758 limits assumed): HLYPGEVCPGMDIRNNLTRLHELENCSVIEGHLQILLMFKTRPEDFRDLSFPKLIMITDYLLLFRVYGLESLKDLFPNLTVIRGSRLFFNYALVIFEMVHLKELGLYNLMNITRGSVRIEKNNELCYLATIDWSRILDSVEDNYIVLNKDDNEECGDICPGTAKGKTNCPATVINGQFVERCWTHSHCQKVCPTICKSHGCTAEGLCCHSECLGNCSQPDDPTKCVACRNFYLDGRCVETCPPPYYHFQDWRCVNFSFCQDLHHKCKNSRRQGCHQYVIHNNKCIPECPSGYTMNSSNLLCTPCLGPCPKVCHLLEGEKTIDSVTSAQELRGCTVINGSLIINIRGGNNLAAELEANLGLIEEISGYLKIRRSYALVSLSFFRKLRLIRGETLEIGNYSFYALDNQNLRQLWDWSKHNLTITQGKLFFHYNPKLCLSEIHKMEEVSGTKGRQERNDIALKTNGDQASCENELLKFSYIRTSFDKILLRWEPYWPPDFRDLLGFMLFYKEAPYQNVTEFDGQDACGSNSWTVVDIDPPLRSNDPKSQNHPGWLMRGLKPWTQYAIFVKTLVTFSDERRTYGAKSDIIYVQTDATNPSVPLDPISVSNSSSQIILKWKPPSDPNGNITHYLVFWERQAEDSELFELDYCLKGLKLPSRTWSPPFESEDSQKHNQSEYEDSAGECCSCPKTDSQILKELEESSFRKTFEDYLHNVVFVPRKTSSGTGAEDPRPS
Chain of IR (Mus musculus, UniProt P15208) (P15208 28-1372): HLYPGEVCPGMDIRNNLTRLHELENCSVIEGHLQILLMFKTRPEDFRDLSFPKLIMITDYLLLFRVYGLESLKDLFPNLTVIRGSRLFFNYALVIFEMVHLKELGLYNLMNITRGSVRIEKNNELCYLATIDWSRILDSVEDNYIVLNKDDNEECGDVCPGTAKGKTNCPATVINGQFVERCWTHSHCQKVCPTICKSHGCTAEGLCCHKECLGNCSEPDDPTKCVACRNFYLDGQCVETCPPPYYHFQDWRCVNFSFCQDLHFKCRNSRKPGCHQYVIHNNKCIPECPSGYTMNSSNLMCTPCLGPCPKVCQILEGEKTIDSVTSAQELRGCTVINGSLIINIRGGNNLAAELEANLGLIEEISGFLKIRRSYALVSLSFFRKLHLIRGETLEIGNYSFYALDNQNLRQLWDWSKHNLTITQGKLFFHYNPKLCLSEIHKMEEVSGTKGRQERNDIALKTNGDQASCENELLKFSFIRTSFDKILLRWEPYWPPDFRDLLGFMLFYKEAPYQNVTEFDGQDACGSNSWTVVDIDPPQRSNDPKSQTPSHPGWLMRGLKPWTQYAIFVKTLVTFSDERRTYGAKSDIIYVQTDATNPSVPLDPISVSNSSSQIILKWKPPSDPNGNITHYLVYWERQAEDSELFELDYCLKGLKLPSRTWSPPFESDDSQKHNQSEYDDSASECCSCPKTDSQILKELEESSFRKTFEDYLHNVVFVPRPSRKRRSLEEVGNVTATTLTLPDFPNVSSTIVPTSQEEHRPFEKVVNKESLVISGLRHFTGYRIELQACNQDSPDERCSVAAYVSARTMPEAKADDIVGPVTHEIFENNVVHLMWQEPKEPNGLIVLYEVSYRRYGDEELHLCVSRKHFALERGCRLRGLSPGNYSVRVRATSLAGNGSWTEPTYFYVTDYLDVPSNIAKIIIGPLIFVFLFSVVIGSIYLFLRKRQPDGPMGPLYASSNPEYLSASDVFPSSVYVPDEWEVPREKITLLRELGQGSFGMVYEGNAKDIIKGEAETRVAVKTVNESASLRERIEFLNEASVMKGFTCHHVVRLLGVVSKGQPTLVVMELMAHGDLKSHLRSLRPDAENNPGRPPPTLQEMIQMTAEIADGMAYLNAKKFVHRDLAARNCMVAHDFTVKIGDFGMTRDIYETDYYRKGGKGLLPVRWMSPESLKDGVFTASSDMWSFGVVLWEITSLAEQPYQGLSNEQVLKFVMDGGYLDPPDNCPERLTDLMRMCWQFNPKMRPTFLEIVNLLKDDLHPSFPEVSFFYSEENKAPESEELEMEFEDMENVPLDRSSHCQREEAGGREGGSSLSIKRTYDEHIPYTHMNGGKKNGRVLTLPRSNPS

Structure (SMILES): NC1=CC(=O)c2ccccc2C1=O [2NH2-NQ, 2-amino-1,4-naphthoquinone, reference compound]
IRTK kinase activity (histone H2B phosphorylation) (GST-IRTK [1]): inactive analogue
blood glucose as compared to vehicle control (C57BL/6J mice): had no effect
IR and IRS-1 tyrosine phosphorylation in liver and muscle (IR [2]): Neither IR nor IRS phosphorylations were increased
IR phosphorylation (IR [3]; 15 min, CHO-IR cells): not active

Structure (SMILES): Nc1ncnc2c1ncn2[C@@H]1O[C@H](COP(=O)(O)OP(=O)(O)OP(O)(O)=S)[C@@H](O)[C@H]1O [ATP-γ-S, reference compound]
protection of IRTK from proteolysis (GST-IRTK [4]): altered the proteolysis pattern; also recorded: digestion pattern was altered

IR phosphorylation, 4524-E7 derivatives (IR [3]; 30 min, compared to the parental compound): improved activity
IR tyrosine phosphorylation (IR [5]): triggered IR tyrosine phosphorylation
Structure (SMILES): O=C1c2ccccc2C(=O)c2sc(Nc3ccc(Cl)cc3Cl)nc21 [compound 7, 2-((2,4-dichlorophenyl)amino)naphtho[2,3-d]thiazole-4,9-dione]

Source: patent publication US9040713B2, “Methods of managing blood sugar levels and compositions related thereto” (EMORY UNIVERSITY, priority 2010, dated 2015)
